Test results taken from US20200237905A1, “COMBINATION THERAPY WITH A BET INHIBITOR, A BCL-2 INHIBITOR AND AN ANTI-CD20 ANTIBODY” (Hoffmann-La Roche Inc., priority 2017, published 2020).

Assays:
[1] = system: WSU-DLCL2 xenografts (CD20+); experiment: In vivo antitumor efficacy against WSU-DLCL2 xenografts, obinutuzumab study (FIG. 1-2); parameters: species or system human; conditions: for median tumor volume: venetoclax 100 mg/kg, RG6146 30 mg/kg; for TGI % (tumor growth inhibition compared to control) / npTCR (non-parametric Treatment to Control Ratio) / Tumor free mice: Day 36; for TGI % (tumor growth inhibition compared to control): obinutuzumab 10 mg/kg once weekly; for Tumor free mice: tumor free mice / mice in group
Procedure: (§1) Antibody buffer included histidine. Antibody solution was diluted appropriately in buffer from stock prior injections. BET inhibitor RG6146 was provided as powder from Roche, Basel, Switzerland and resuspended prior to use. Bcl-2 inhibitor GDC-0199 was provided by Genentech, South San Francisco, USA and formulated prior to use.
(§2) The original WSU-DLCL2 human B cell NHL cell line (DLBCL) was purchased from DSMZ (Braunschweig, Germany). Expansion of tumor cells for the transplantation was done by the TAP CompacT CellBase Cell Culture Roboter according to the protocol. Tumor cell line was routinely cultured in RPMI 1640 medium, FCS 10% and L-Glutamin 2 mM at 37° C. in a water-saturated atmosphere at 5% CO2. Culture passage was performed with trypsin/EDTA 1× splitting twice/week and passage 3 used for transplantation.
(§3) Female SCID beige mice, age 6-7 weeks at arrival, maintained under specific-pathogen-free condition with daily cycles of 12 h light/12 h darkness according to committed guidelines. Experimental study protocol was reviewed and approved by local government. After arrival animals were maintained in animal facility for one week to get accustomed to new environment and for observation. Continuous health monitoring was carried out on regular basis. Diet food and autoclaved water were provided ad libitum.
(§4) Animals were controlled daily for clinical symptoms and detection of adverse effects. For monitoring throughout the experiment body weight of animals was documented.
CD20 antibody obinutuzumab was administered as single agent and in combination at 10 mg/kg ip once weekly on days 10, 17, 24 and 31. The corresponding vehicle was administered on the same days. BET inhibitor RG6146 ip treatment at 30 mg/kg was done as single agent and in combination on days 10-18, 21-25 and 28-32. Finally, Bcl-2 inhibitor venetoclax (GDC-0199) was given orally at 100 mg/kg on days 10-18, 21-25 and 28-32 as single agent and in combination.
For the study shown in FIG. 1, WSU-DLCL2 human Diffuse Large B-cell Lymphoma (DLBCL) cells (CD20+) were s.c. inoculated with Matrigel onto female SCID beige mice. Tumor bearing mice were randomized 10 days later to the indicated study groups and compound treatment initiated. Tumor bearing animals were treated with vehicle control, with the BET inhibitor RG6146 at 30 mg/kg, with the anti-CD20 antibody obinutuzumab at 10 mg/kg or with Bcl-2 inhibitor venetoclax (GDC-0199) at 100 mg/kg as single agent. Additionally, three groups were treated with a dual combination of either RG6146 and venetoclax, or RG6146 and obinutuzumab or obinutuzumab and venetoclax. Finally, one study group received the triple combination of BET inhibitor RG6146, CD20 antibody obinutuzumab and Bcl-2 inhibitor venetoclax (GDC-0199). […] In constrast to this, the respective double combination regimens reached a tumor regrowth after about 20 days.

[2] = system: WSU-DLCL2 xenografts (CD20+); experiment: In vivo antitumor efficacy against WSU-DLCL2 xenografts, rituximab study (FIG. 3); parameters: species or system human; conditions: for median tumor volume / npTCR (non-parametric Treatment to Control Ratio) / Tumor free mice: rituximab 10 mg/kg; for median tumor volume: venetoclax 100 mg/kg, RG6146 30 mg/kg; for TGI % (tumor growth inhibition): rituximab 10 mg/kg once weekly, venetoclax 100 mg/kg po and RG6146 30 mg/kg ip days 11-17; for npTCR (non-parametric Treatment to Control Ratio) / Tumor free mice: venetoclax 100 mg/kg po, RG6146 30 mg/kg ip; for Tumor free mice: tumor free mice / mice in group
Procedure: as §1, §2, §3, §4
The corresponding vehicle was administered on the same days. BET inhibitor RG6146 ip treatment at 30 mg/kg was done as single agent and in combination on days 11-17. Finally, bcl-2 inhibitor venetoclax (GDC-0199) was given orally at 100 mg/kg on days 11-17 as single agent and in combination.

[3] = Day 10 (randomisation, start of treatment), s.c. xenograft in female SCID beige mice, obinutuzumab 10 mg/kg
[4] = Day 14, female SCID beige mice, obinutuzumab 10 mg/kg
[5] = Day 17, female SCID beige mice, obinutuzumab 10 mg/kg
[6] = Day 21, female SCID beige mice, obinutuzumab 10 mg/kg
[7] = Day 24, female SCID beige mice, obinutuzumab 10 mg/kg
[8] = Day 28, female SCID beige mice, obinutuzumab 10 mg/kg
[9] = Day 31, female SCID beige mice, obinutuzumab 10 mg/kg
[10] = Day 36 (treatment ended day 32), female SCID beige mice, obinutuzumab 10 mg/kg
[11] = female SCID beige mice, venetoclax 100 mg/kg po, RG6146 30 mg/kg ip
[12] = obinutuzumab 10 mg/kg, venetoclax 100 mg/kg po, RG6146 30 mg/kg ip
[13] = Day 11, s.c. xenograft in female SCID beige mice

| Compound | median tumor volume [1, 3] [mm^3] | median tumor volume [1, 4] [mm^3] | median tumor volume [1, 5] [mm^3] | median tumor volume [1, 6] [mm^3] | median tumor volume [1, 7] [mm^3] | median tumor volume [1, 8] [mm^3] | median tumor volume [1, 9] [mm^3] | median tumor volume [1, 10] [mm^3] | TGI % (tumor growth inhibition compared to control) [1, 11] [%] | npTCR (non-parametric Treatment to Control Ratio) [1, 12] | Tumor free mice [1, 12] | median tumor volume [2, 13] [mm^3] | median tumor volume ([2]; Day 14, female SCID beige mice) [mm^3] | median tumor volume ([2]; Day 18, female SCID beige mice) [mm^3] | median tumor volume ([2]; Day 21, female SCID beige mice) [mm^3] | median tumor volume ([2]; Day 25, female SCID beige mice) [mm^3] | TGI % (tumor growth inhibition) ([2]; Day 28, female SCID beige mice) [%] | median tumor volume ([2]; Day 28, female SCID beige mice) [mm^3] | npTCR (non-parametric Treatment to Control Ratio) ([2]; Day 28) | Tumor free mice ([2]; Day 28) | further results |
| --- | --- | --- | --- | --- | --- | --- | --- | --- | --- | --- | --- | --- | --- | --- | --- | --- | --- | --- | --- | --- | --- |
| Cc1sc2c(c1C)C(c1ccc(Cl)cc1)=N[C@@H](CC(=O)NCCCN1CCN(C)CC1)c1nnc(C)n1-2 [RG6146, 2-[(S)-4-(4-Chloro-phenyl)-2,3,9-trimethyl-6H-1-thia-5,7,8,9a-tetraaza-cyclopenta[e]azulen-6-yl]-N-[3-(4-methyl-piperazin-1-yl)-propyl]-acetamide] | 137 | 200 | 185 | 198 | 387 | 441 | 489 | 962 | 46 | 0.50 | 0/9 | 134 | 161 | 270 | 245 | 453 | 30 | 550 | 0.71 | 0/9 | – |
| CC1(C)CCC(CN2CCN(c3ccc(C(=O)NS(=O)(=O)c4ccc(NCC5CCOCC5)c([N+](=O)[O-])c4)c(Oc4cnc5[nH]ccc5c4)c3)CC2)=C(c2ccc(Cl)cc2)C1 [venetoclax, 4-(4-{[2-(4-chlorophenyl)-4,4-dimethylcyclohex-1-en-1-yl]methyl}piperazin-1-yl)-N-({3-nitro-4-[(tetrahydro-2H-pyran-4-ylmethyl)amino]phenyl}sulfonyl)-2-(1H-pyrrolo[2,3-b]pyridin-5-yloxy)benzamide] | 137 | 202 | 226 | 212 | 337 | 494 | 565 | 906 | 49 | 0.53 | 0/10 | 136 | 162 | 267 | 388 | 497 | 34 | 554 | 0.66 | 0/10 | – |
| obinutuzumab: Type II anti-CD20 antibody, synonymous for GA101, formerly known as afutuzumab | 136 | 131 | 112 | 110 | 111 | 124 | 132 | 382 | 84 | 0.20 | 0/10 | – | – | – | – | – | – | – | – | – | median tumor volume ([1]; Day 39 (follow-up after treatment), female SCID beige mice, obinutuzumab 10 mg/kg): 405 mm^3; median tumor volume ([1]; Day 43 (follow-up after treatment), female SCID beige mice, obinutuzumab 10 mg/kg): 700 mm^3; median tumor volume ([1]; Day 46 (follow-up after treatment), female SCID beige mice, obinutuzumab 10 mg/kg): 713 mm^3; median tumor volume ([1]; Day 50 (follow-up after treatment), female SCID beige mice, obinutuzumab 10 mg/kg): 758 mm^3; Tumor growth delay (Days): time until relative tumor volume reached again 100% (100% at beginning, Day 10) ([1]; female SCID beige mice, obinutuzumab 10 mg/kg, venetoclax 100 mg/kg po, RG6146 30 mg/kg ip): 21 days |
